Assay results from patent publication US20140348861A1, “SYNTHETIC PEPTIDES AND RANDOM COPOLYMERS FOR THE TREATMENT OF AUTOIMMUNE DISORDERS” (NATIONAL INSTITUTE OF IMMUNOLOGY, priority 2011, published 2014).
Non-standard residues stand in square brackets, D forms with d. No end group written: not given here. β3hY = N[C@H](CC(=O)O)Cc1ccc(O)cc1; β3hK = NCCCC[C@H](N)CC(=O)O; β3hA = C[C@H](N)CC(=O)O

System: SJL/J mice exhibiting MBP (85-109) induced relapsing remitting form of EAE
Assay: Therapeutic activity in MBP (85-109) induced relapsing remitting EAE, treatment from day 11
Format: in vivo
Settings: SJL/J mice, RR EAE; for Therapeutic activity in comparison to GA (Therapeutic activity (Analogs) − Therapeutic activity GA) / Therapeutic activity in comparison to J5 (Therapeutic activity (Analogs) − Therapeutic activity (J5)): 0.1 mg daily for two weeks; for Therapeutic activity = % reduction in cumulative clinical disability score: synthetic peptides, 0.1 mg daily for two weeks from day 11 post-immunization
Protocol: SJL/J and C57BL6/J mice procured from Jackson's laboratory (Bar Harbor, Me.) were maintained under standard housing conditions in the central animal facility at NII as per institutional ethical committee guidelines. 8-10 week old female SJL/J mice were used throughout the study.
To induce RR EAE or chronic progressive EAE, SJL/J or C57BL6/J mice were immunized subcutaneously with 0.2 mg of MBP (85-109) or 0.1 mg MOG (35-55) emulsified in CFA and 200 ng of pertussis toxin was injected intraperitoneally on day 0 and day 2 so as to permeablize the blood brain barrier. All the animals in various experimental groups were scored daily for clinical disability on a scale of 0-6 where 0=no neurological symptoms, 1=limp tail, 2=weakness of hind limbs or ataxia, 3=incomplete paralysis of hind limbs, 4=complete paralysis of hind limbs, 5=complete paralysis of all four limbs, 6=dead. Diseased animals were provided easy access to food and water.
GA, J91, J92, S101, S102, S103 for two weeks and scored for clinical disability.

| Substance | Therapeutic activity in comparison to GA (Therapeutic activity (Analogs) − Therapeutic activity GA) [%] | Therapeutic activity in comparison to J5 (Therapeutic activity (Analogs) − Therapeutic activity (J5)) [%] | Therapeutic activity = % reduction in cumulative clinical disability score [%] |
| --- | --- | --- | --- |
| KVEAYβ^3Kβ^3 (KVEA[β3hY][β3hK]) [Analog S29] | −1.07 | −5.027 | 30.27 |
| Kβ^3Vβ^3Eβ^3Aβ^3Yβ^3Kβ^3 [Analog S33] | 14.44 | 10.48 | 45.7754 |
| KVEAβ^3Yβ^3Kβ^3Aβ^3Aβ^3Aβ^3Aβ^3 [Analog S23] | 22.14 | 18.18 | 53.48 |
| KβVβEAYβKβAβAβAβAβ [Analog S65] | −5.989 | −9.947 | 25.35 |
| KVEAYKAβ^3Aβ^3Aβ^3Aβ^3 (KVEAYK[β3hA][β3hA][β3hA][β3hA]) [Analog S20] | 16.9 | 12.94 | 48.24 |
| KVEAβYβKβ [Analog S68] | −5.134 | −9.091 | 26.2 |
| Kβ^3Vβ^3Eβ^3AβYβ^3Kβ^3AβAβAβAβ^3 [Analog S81] | 31.12 | 27.17 | 62.46 |
| EKPKVEAYKAAAAPAβ [Analog S41] | 2.032 | −1.925 | 33.37 |
| KVEβAβYβKβAβAβAβAβ [Analog S62] | 5.455 | 1.497 | 36.79 |
| KβVβEβAβYβKβ [Analog S71] | −14.9519 | −18.9091 | 16.39 |
| KVEβ^3Aβ^3Yβ^3Kβ^3 [Analog S31] | −1.818 | −5.7754 | 29.52 |
| EKPKVEAYKAAAAβ^3Pβ^3Aβ^3 [Analog S3] | 5.027 | 1.07 | 36.36 |
| KVEAYKβ^3Aβ^3Aβ^3Aβ^3Aβ^3 [Analog S21] | 17.97 | 14.01 | 49.3 |
| Kβ^3Vβ^3Eβ^3AβYβ^3Kβ^3AβAβAβ^3Aβ^3 [Analog S82] | 31.87 | 27.91 | 63.21 |
| EβKβPKβ^3Vβ^3Eβ^3AβYβ^3Kβ^3AβAβAβ^3Aβ^3PAβ [Analog S80] | 30.7 | 26.74 | 62.03 |
| Vβ^3EAYβ^3Kβ^3 [Analog S40] | 13.9 | 9.947 | 45.24 |
| KVEAYKβAβAβAβAβ [Analog S59] | 12.94 | 8.984 | 44.28 |
| KVEAβ^3Yβ^3Kβ^3 [Analog S30] | 0.8556 | −3.102 | 32.19 |
